Measurements taken from the NIST ThermoML archive (doi:10.1016/j.jct.2018.12.019).

Columns and labels:
[1] = xn = mol fraction of the nth substance listed; conditions: 98 kPa, Liquid; for speed of sound: Frequency=3 MHz, Single path-length method; for mass density: Vibrating tube method
[2] = excess molar enthalpy (molar enthalpy of mixing); xn = mol fraction of the nth substance listed; conditions: 298.15 K, 98 kPa, Liquid, Calvet calorimetry

Cn1ccnc1 [1-methylimidazole] + CC(C)O
[1]
Conditions | mass density, 288.15 K [kg/m3] | mass density, 298.15 K [kg/m3] | mass density, 308.15 K [kg/m3] | mass density, 318.15 K [kg/m3] | mass density, 328.15 K [kg/m3] | speed of sound, 288.15 K [m/s] | speed of sound, 298.15 K [m/s] | speed of sound, 308.15 K [m/s] | speed of sound, 318.15 K [m/s] | speed of sound, 328.15 K [m/s]
x1 = 0.0508 | 803.32 | 794.92 | 786.26 | 777.31 | 767.99 | 1199.2 | 1164 | 1128.7 | 1093.2 | 1057.4
x1 = 0.1043 | 817.79 | 809.32 | 800.63 | 791.7 | 782.45 | 1224.9 | 1189.6 | 1154.6 | 1118.7 | 1083
x1 = 0.2003 | 843.18 | 834.63 | 825.91 | 817 | 807.86 | 1268.9 | 1233.4 | 1197.9 | 1162.5 | 1127.2
x1 = 0.3007 | 869.37 | 860.76 | 852.02 | 843.13 | 834.07 | 1313.8 | 1278.4 | 1242.9 | 1207.7 | 1172.6
x1 = 0.405 | 896.25 | 887.59 | 878.83 | 869.96 | 860.95 | 1360.7 | 1325.3 | 1289.7 | 1254.5 | 1219.5
x1 = 0.5046 | 921.64 | 912.93 | 904.15 | 895.28 | 886.27 | 1406.8 | 1371.1 | 1335.5 | 1300.1 | 1265
x1 = 0.6006 | 945.55 | 936.79 | 927.97 | 919.09 | 910.11 | 1451.7 | 1415.7 | 1379.6 | 1344 | 1308.6
x1 = 0.7034 | 970.8 | 962 | 953.15 | 944.24 | 935.27 | 1500.7 | 1464.1 | 1427.7 | 1391.6 | 1355.8
x1 = 0.8029 | 994.49 | 985.66 | 976.78 | 967.86 | 958.89 | 1547.2 | 1510.2 | 1473.3 | 1436.7 | 1400.5
x1 = 0.9031 | 1017.75 | 1008.9 | 1000.03 | 991.11 | 982.15 | 1592.8 | 1555.5 | 1518.1 | 1481.2 | 1444.6
x1 = 0.9536 | 1029.16 | 1020.32 | 1011.45 | 1002.55 | 993.6 | 1614.9 | 1577.5 | 1540 | 1502.9 | 1466.2
x1 = 1 | 1039.36 | 1030.52 | 1021.66 | 1012.76 | 1003.83 | 1634.1 | 1596.5 | 1559 | 1521.8 | 1485

[2]
Conditions | excess molar enthalpy [kcal/mol]
x1 = 0.0518 | -0.0112
x1 = 0.1082 | -0.0304
x1 = 0.1974 | -0.0511
x1 = 0.2924 | -0.0734
x1 = 0.3342 | -0.0793
x1 = 0.3969 | -0.0848
x1 = 0.4954 | -0.0899
x1 = 0.5926 | -0.0846
x1 = 0.7041 | -0.0719
x1 = 0.798 | -0.0519
x1 = 0.8831 | -0.0294
x1 = 0.9538 | -0.0143
x1 = 1 | 0
